Results taken from article PMC7827085 (Pharmaceutics, 2021).

Legend:
OATP1A2 = biological target: T1, OATP1A2 (Homo sapiens, UniProt P46721); assay: in vitro; settings: A431 cells overexpressing OATP1A2, pH 7, probe sulforhodamine 101, 0.5 µM
T1 sequence (P46721 1-670): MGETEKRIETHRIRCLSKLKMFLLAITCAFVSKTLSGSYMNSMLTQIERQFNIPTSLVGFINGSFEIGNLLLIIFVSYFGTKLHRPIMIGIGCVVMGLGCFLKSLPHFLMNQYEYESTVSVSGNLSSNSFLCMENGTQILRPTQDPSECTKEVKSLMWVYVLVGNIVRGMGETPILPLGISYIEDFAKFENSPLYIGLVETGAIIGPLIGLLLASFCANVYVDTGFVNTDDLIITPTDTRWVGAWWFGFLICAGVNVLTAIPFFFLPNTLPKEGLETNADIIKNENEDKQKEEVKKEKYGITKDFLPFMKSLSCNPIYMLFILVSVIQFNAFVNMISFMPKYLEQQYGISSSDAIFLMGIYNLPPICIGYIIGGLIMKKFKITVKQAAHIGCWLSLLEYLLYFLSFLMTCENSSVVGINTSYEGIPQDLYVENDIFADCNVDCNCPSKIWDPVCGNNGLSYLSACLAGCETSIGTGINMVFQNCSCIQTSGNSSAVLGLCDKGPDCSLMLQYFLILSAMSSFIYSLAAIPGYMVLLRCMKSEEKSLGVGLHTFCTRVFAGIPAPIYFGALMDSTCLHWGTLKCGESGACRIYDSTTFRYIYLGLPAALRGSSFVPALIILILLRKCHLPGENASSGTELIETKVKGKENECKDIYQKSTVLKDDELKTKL

wild-type ABCG2 = biological target: T2, wild-type ABCG2 (Homo sapiens, UniProt Q9UNQ0); assay: Hoechst 33342 dye extrusion in HeLa cells expressing wild-type ABCG2; assay type: cell-based; settings: wild-type ABCG2, 0.2 µM Hoechst 33342, full inhibition by 1 µM Ko143
T2 construct: expressed in transfected cells; host or cells: HeLa (Sleeping Beauty transposon system)
T2 sequence (Q9UNQ0 1-655): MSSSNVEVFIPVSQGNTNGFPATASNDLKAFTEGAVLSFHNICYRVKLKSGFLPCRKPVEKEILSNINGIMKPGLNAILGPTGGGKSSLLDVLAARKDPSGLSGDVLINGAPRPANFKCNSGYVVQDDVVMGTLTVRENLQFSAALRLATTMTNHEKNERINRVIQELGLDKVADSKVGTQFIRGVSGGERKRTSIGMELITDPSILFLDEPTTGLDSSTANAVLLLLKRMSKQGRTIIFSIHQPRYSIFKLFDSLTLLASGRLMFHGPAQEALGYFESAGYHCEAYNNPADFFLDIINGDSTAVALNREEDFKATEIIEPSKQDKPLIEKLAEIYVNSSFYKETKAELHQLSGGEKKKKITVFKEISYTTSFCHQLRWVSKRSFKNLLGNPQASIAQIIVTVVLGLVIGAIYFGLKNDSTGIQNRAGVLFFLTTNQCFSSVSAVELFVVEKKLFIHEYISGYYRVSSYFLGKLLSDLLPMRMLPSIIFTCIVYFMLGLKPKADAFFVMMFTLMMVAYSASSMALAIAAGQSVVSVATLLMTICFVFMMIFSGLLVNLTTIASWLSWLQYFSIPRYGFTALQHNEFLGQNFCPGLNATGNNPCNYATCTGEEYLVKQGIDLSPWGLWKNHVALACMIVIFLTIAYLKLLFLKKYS

ABCG2/BCRP = biological target: T3, ABCG2/BCRP (Homo sapiens, UniProt Q9UNQ0); assay: ABCG2-ATPase activity in Sf9 membrane vesicles; assay type: biochemical; design: expressed in transfected cells; host or cells: PLB-985; settings: Sf9/ABCG2 membranes
T3 sequence (Q9UNQ0 1-655): T2 sequence (Q9UNQ0 1-655)
Description: ABC transporter ATPase activity was measured in Sf9 membrane vesicles containing the respective human ABC transporters [46, 47, 48, 49, 50]. For ABCG2/BCRP, the cholesterol level in the vesicles was increased to the level of mammalian cell membranes for full activity [49]. For ABCB1/Pgp 20 μg/150 μL and for ABCG2/BCRP 10 μg/150 μL, vesicles were incubated with 3 mM Mg-ATP for 25 min at 37 °C. The test drugs were dissolved in DMSO and 1 µL was added to the samples. The ABC transporter-related ATPase activity was determined and reference activators (50 µM verapamil for ABCB1 and 5 µM quercetin for ABCG2) served as controls.
Drug-stimulated ATPase activity of the ABCG2 transporter was also measured in the present study.

ABCB1/MDR1/Pgp = ABCB1/MDR1/Pgp (Homo sapiens, UniProt P08183); assay: biochemical; settings: Estimated Transporter Inhibition IC50, ABCB1 vesicular assay, ATP-dependent NMQ uptake, HEK-293/ABCB1 inverted membrane vesicles; '-' = no inhibition
Chain of ABCB1/MDR1/Pgp (P08183 whole entry): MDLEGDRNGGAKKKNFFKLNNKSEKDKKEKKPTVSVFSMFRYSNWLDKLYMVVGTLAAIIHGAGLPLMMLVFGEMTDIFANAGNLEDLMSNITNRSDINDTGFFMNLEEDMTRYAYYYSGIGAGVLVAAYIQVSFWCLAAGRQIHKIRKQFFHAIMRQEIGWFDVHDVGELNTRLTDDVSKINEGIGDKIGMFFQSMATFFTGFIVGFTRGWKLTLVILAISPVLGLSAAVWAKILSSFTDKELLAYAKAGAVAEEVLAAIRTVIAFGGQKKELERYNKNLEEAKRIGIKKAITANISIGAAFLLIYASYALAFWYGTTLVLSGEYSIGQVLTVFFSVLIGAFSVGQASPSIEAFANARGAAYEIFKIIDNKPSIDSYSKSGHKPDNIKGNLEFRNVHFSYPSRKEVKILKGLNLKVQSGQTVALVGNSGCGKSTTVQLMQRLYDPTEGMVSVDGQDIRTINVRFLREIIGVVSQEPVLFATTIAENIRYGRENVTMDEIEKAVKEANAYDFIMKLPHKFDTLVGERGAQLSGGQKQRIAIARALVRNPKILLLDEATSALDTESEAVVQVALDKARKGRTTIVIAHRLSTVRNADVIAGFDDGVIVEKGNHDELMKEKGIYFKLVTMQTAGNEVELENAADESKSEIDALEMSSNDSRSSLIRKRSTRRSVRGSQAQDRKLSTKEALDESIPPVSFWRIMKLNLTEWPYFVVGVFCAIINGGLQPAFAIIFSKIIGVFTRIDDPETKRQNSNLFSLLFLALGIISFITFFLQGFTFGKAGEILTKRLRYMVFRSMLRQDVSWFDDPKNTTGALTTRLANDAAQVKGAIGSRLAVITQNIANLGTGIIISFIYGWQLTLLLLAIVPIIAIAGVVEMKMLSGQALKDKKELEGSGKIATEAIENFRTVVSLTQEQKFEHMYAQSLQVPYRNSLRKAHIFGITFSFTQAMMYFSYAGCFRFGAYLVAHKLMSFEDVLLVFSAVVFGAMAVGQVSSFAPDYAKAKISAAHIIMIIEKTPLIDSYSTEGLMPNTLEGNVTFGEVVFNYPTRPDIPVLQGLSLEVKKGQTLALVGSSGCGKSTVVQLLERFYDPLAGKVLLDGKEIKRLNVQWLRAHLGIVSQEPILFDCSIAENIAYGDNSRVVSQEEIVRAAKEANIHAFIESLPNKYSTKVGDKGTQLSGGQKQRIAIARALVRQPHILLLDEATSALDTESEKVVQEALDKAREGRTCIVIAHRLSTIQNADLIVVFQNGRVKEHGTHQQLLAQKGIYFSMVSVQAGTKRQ

| SMILES | IC50 at 10 min (OATP1A2) [µM] | Effect on Hst dye extrusion by ABCG2 in HeLa cells (in words) (wild-type ABCG2) | Concentration at which baseline ABCG2-ATPase activity was inhibited (ABCG2/BCRP) [µmol] | Effect on baseline ABCG2-ATPase activity (in words) (ABCG2/BCRP; ivermectin, ritonavir, lopinavir at low micromolar, remdesivir at higher concentrations) | IC50 (ABCB1/MDR1/Pgp) [µM] |
| --- | --- | --- | --- | --- | --- |
| NC(=O)c1nc(F)c[nH]c1=O [favipiravir] | > 50 | – | – | – | – |
| CCC(CC)COC(=O)[C@H](C)N[P@](=O)(OC[C@H]1O[C@@](C#N)(c2ccc3c(N)ncnn23)[C@H](O)[C@@H]1O)Oc1ccccc1 [remdesivir] | – | slight effect at relatively high concentrations | 20 to 50 | significantly inhibited | > 20 |
